Laboratory results from PubChem BioAssay AID248 (DTP/NCI, 2004).
Several values for one entry are separate records, joined by “and”; a condition that tells them apart may be missing. Identical values can stand only once. Toxic doses and inconclusive results are not listed. Cut-off read from the data, not from the text of the source: active = T/C of 150% or more; inactive = T/C below 125%.

System: L1210 leukemia ip in BDF1 mice, survival T/C
Test: NCI In Vivo Anticancer Drug Screen. Data for tumor model L1210 Leukemia (intraperitoneal) in B6D2F1 (BDF1) mice
Conditions: endpoint: mean survival time, higher = longer survival
How it was run: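 In this screen, tumor-bearing mice given compound are compared to those given vehicle, and their survival values are reported as a treated-to-control quotient.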

[1] = dose: 100.0 mg/kg/injection, schedule: Q04DX002 (ip), vehicle: Klucel (hydroxypropylcellulose) (HPC)
[2] = dose: 200.0 mg/kg/injection, schedule: Q04DX002 (ip), vehicle: Klucel (hydroxypropylcellulose) (HPC)
[3] = dose: 400.0 mg/kg/injection, schedule: Q04DX002 (ip), vehicle: Klucel (hydroxypropylcellulose) (HPC)
[4] = dose: 50.0 mg/kg/injection, schedule: Q01DX009 (ip), vehicle: saline with Tween-80
[5] = dose: 100.0 mg/kg/injection, schedule: Q01DX009 (ip), vehicle: saline with Tween-80
[6] = dose: 200.0 mg/kg/injection, schedule: Q01DX009 (ip), vehicle: saline with Tween-80
[7] = dose: 100.0 mg/kg/injection, schedule: Q01DX001 (ip), vehicle: Klucel (hydroxypropylcellulose) (HPC)
[8] = dose: 200.0 mg/kg/injection, schedule: Q01DX001 (ip), vehicle: Klucel (hydroxypropylcellulose) (HPC)
[9] = dose: 400.0 mg/kg/injection, schedule: Q01DX001 (ip), vehicle: Klucel (hydroxypropylcellulose) (HPC)
[10] = dose: 25.0 mg/kg/injection, schedule: Q01DX009 (ip), vehicle: saline with Tween-80
[11] = dose: 100.0 mg/kg/injection, schedule: Q01DX001 (ip), vehicle: saline
[12] = dose: 200.0 mg/kg/injection, schedule: Q01DX001 (ip), vehicle: saline
[13] = dose: 400.0 mg/kg/injection, schedule: Q01DX001 (ip), vehicle: saline
[14] = dose: 100.0 mg/kg/injection, schedule: Q04DX003 (ip), vehicle: saline with Tween-80
[15] = dose: 200.0 mg/kg/injection, schedule: Q04DX003 (ip), vehicle: saline with Tween-80
[16] = dose: 400.0 mg/kg/injection, schedule: Q04DX003 (ip), vehicle: saline with Tween-80
[17] = dose: 400.0 mg/kg/injection, schedule: Q01DX009 (ip), vehicle: saline with Tween-80
[18] = dose: 100.0 mg/kg/injection, schedule: Q01DX009 (ip), vehicle: saline
[19] = dose: 12.5 mg/kg/injection, schedule: Q01DX009 (ip), vehicle: saline with Tween-80

Measured: T/C

O=C1OCC/C1=C/OCCCCO/C=C1/CCOC1=O
inactive: [1] 97 % of control | [2] 97 % of control | [3] 94 % of control

C/C(=N\O)c1ccc(OCC(O)CN2CCN(c3ccccc3)CC2)cc1 (configuration not stated)
inactive: dose: 37.5 mg/kg/injection, schedule: Q04DX003 (ip), vehicle: saline with Tween-80 101 % of control | [4] 103 % of control | dose: 75.0 mg/kg/injection, schedule: Q04DX003 (ip), vehicle: saline with Tween-80 93 % of control | [5] 108 % of control | dose: 150.0 mg/kg/injection, schedule: Q04DX003 (ip), vehicle: saline with Tween-80 101 % of control | [6] 115 % of control

[N-]=[N+]=C1C(=O)NC(=O)NC1C(=O)O (configuration not stated)
inactive: dose: 75.0 mg/kg/injection, schedule: Q01DX009 (ip), vehicle: Klucel (hydroxypropylcellulose) (HPC) 103 % of control | [7] 96 % of control | dose: 150.0 mg/kg/injection, schedule: Q01DX009 (ip), vehicle: Klucel (hydroxypropylcellulose) (HPC) 119 % of control | [8] 100 % of control | dose: 300.0 mg/kg/injection, schedule: Q01DX009 (ip), vehicle: Klucel (hydroxypropylcellulose) (HPC) 107 % of control | [9] 86 % of control

CCOc1ccc(NC(=O)OC/C=C/c2ccccc2)cc1
inactive: [4] 96 % of control | [5] 93 % of control | [6] 90 % of control

O=C(COc1ccc(Cl)cc1Cl)Nc1ccc(F)cc1
inactive: [10] 93 % of control | [4] 91 % of control | [5] 104 % of control and 88 % of control

CCCCN=C(N)c1ccc(S(=O)(=O)N=C(N)N)cc1
inactive: [11] 97 % of control | [12] 101 % of control | [13] 97 % of control

Cc1ccc(S(=O)(=O)OCC(=O)O)cc1
inactive: [14] 95 % of control | [15] 95 % of control | [16] 100 % of control

N#Cc1ncn(C2OC(CO)C(O)C2O)c1N (configuration not stated)
inactive: dose: 100.0 mg/kg/injection, schedule: Q01DX005 (ip), vehicle: saline 103 % of control | dose: 200.0 mg/kg/injection, schedule: Q01DX005 (ip), vehicle: saline 96 % of control

O=C1NC(=O)c2ccc(S)c3cccc1c23
inactive: [5] 94 % of control | [6] 90 % of control | [17] 97 % of control

O=[N+]([O-])c1ccc2sc3ccccc3c2c1
inactive: [1] 108 % of control | [2] 97 % of control | [3] 101 % of control

BrCC[CH2][Sn]([Br])([Br])[Br]
inactive: dose: 50.0 mg/kg/injection, schedule: Q01DX009 (ip), vehicle: saline 107 % of control | [18] 103 % of control

COCC1OC(OC(=O)c2ccccc2)C(OC(=O)c2ccccc2)C(OC(=O)c2ccccc2)C1OC (configuration not stated)
inactive: [19] 97 % of control | [10] 95 % of control | [4] 93 % of control

Nc1c(C(=O)O)cccc1C(=O)O
inactive: [5] 98 % of control | [14] 110 % of control | [6] 107 % of control | [15] 108 % of control | [17] 107 % of control | [16] 96 % of control

OCC(O)C(O)C(O)C(c1ccc(F)cc1)c1ccc(F)cc1 (configuration not stated)
inactive: dose: 50.0 mg/kg/injection, schedule: Q01DX001 (ip), vehicle: saline 97 % of control | [11] 100 % of control | [12] 100 % of control | [13] 103 % of control

CCSCC1OC(n2cnc3c(N)nc(Cl)nc32)C(O)C1O (configuration not stated)
inactive: dose: 12.5 mg/kg/injection, schedule: Q01DX001 (ip), vehicle: saline with Tween-80 100 % of control | dose: 25.0 mg/kg/injection, schedule: Q01DX001 (ip), vehicle: saline with Tween-80 100 % of control | dose: 50.0 mg/kg/injection, schedule: Q01DX001 (ip), vehicle: saline with Tween-80 102 % of control

CSc1nc([N+](=O)[O-])c2cnccn12
inactive: dose: 6.25 mg/kg/injection, schedule: Q01DX009 (ip), vehicle: saline with Tween-80 88 % of control | [19] 93 % of control | dose: 12.5 mg/kg/injection, schedule: Q04DX003 (ip), vehicle: saline with Tween-80 101 % of control | [10] 93 % of control | dose: 25.0 mg/kg/injection, schedule: Q04DX003 (ip), vehicle: saline with Tween-80 103 % of control | [4] 93 % of control

O=C(O)CSC(CC(=O)O)C(=O)O (configuration not stated)
inactive: [18] 107 % of control | dose: 200.0 mg/kg/injection, schedule: Q01DX009 (ip), vehicle: saline 108 % of control | dose: 400.0 mg/kg/injection, schedule: Q01DX009 (ip), vehicle: saline 103 % of control

COc1ccccc1-n1c(O)c(N=Nc2ccc(C)cc2)c(=O)n(-c2ccccc2)c1=S
inactive: [7] 103 % of control | [8] 97 % of control | [9] 91 % of control
